# From patent publication US9850218B2, “Thiazole compounds, compositions and methods for treatment of degenerative diseases and disorders” (MUSC FOUNDATION FOR RESEARCH DEVELOPMENT, priority 2013, dated 2017)
# Experiments:
# [1] = tested on: 661W or C6 cells; assay: XF FCCP-uncoupled oxygen consumption rate assay (IBMX treatment); assay type: cell-based; details: for activity at 1 µM: 1 uM compound
# Method: The XF FCCP-uncoupled oxygen consumption rate assay assesses mitochondrial capacity by measuring cellular respiration. It was shown that the maximum FCCP-uncoupled oxygen consumption rate (OCR) was a good estimate of maximal mitochondrial capacity (Beeson 2010) and that IBMX treatment of 661W or C6 cells for 24 h caused a loss in maximal uncoupled OCR (Perron 2013). Thus, cells were pretreated with the exemplified compounds for 1 h, added 600 μM IBMX and then measured the uncoupled rate after 24 h. The OCR measurements were performed using a Seahorse Bioscience XF instrument (Seahorse Bioscience, Billerica, Md.), as previously published (Perron 2013). O2 leakage through the plastic sides and bottom of the plate was accounted for using the AKOS algorithm in the XF software package. Cells were plated on 96- or 24-well custom plates designed for use in the XF and grown to confluency in DMEM+5% FBS (48 h). The medium was then replaced with DMEM+1% FBS for 24 h, along with any treatments.
# [2] = tested on: 661W or C6 cells; assay: MTT assay: protection against calcium-ionophore A23187; assay type: cell-based; details: for viability at 0.1 µM: 100 nM compound; for viability at 1 µM: 1 μM compound; for viability at 0.0008 µM: 800 pM compound; for viability at 0.5 µM: 500 nM compound
# Method: The compound 3-(4,5-Dimethylthiazol-2-yl)-2,5-diphenyltetrazolium bromide (MTT) is a tetrazolium ion that is reduced to a blue formazan dye via several families of NAD(P)H-dependent oxidoreductases. Formation of the formazan dye from MTT or other related tetrazolium dyes are commonly used as a viability assay even though, in fact, the assay is a metabolic capacity assay.
# In this assay, 661W or C6 cells were maintained in DMEM supplemented with 10% FBS. 100 μl, of 70,000 cells/mL cells were seeded into each well of 96 well plates using DMEM supplemented with 5% FBS. Cells were then allowed to grow to confluency for 48 hours. The compounds of the invention were added in 2 μL media and calcium-ionophore A23187 was then added in 1 μL for a final concentration of 1 μM and after 24 h, 20 uL of 2 μg/mL MTT were added to each well and the cells were incubated for another 4 h after which 100 μL of 1% SDS in 0.01 M aqueous HCl were added to each well and the plates were incubated overnight. Absorbance was measured at 640 and 570 nM (background correction). The 1 μM ionophore A23187 caused about 50% loss in MTT signal at 24 h. Protection was calculated as the increase in absorbance of treatment groups normalized to the vehicle control.
# [3] = 1 h pretreatment, 600 μM IBMX, 24 h, read-out: XF FCCP OCR (% Ctrl, concentration)
# [4] = 1 μM A23187, 24 h, read-out: MTT Protection (%, concentration)
Compound,"activity at 1 µM [1, 3] [%]","viability at 0.1 µM [2, 4] [%]",also measured
"CCOC(=O)c1sc(-c2ccccc2)nc1-c1ccccc1 [Example 1, Ethyl 2,4-diphenylthiazole-5-carboxylate]",71,48,–
"O=C(O)c1sc(-c2ccccc2)nc1-c1ccccc1 [Example 2, 2,4-Diphenylthiazole-5-carboxylic acid]",77,40,–
"O=C(Nc1ccccc1)c1sc(-c2ccccc2)nc1-c1ccccc1 [Example 3, N,2,4-Triphenylthiazole-5-carboxamide]",72,–,"viability at 1 µM [2, 4]: 47%"
"O=C(Nc1ccc(F)cc1)c1sc(-c2ccccc2)nc1-c1ccccc1 [Example 4, N-(4-fluorophenyl)-2,4-diphenylthiazole-5-carboxamide]",83,64.1,–
"CCOC(=O)c1sc(-c2ccc(OC)cc2)nc1-c1ccccc1 [Example 5, Ethyl 2-(4-methoxyphenyl)-4-phenylthiazole-5-carboxylate]",82,69,–
"COCCN(C)C(=O)c1sc(-c2ccccc2)nc1-c1ccccc1 [Example 6, N-(2-methoxyethyl)-N-methyl-2,4-diphenylthiazole-5-carboxamide]",81,78.4,–
"CCOC(=O)c1sc(-c2ccccn2)nc1-c1ccccc1 [Example 7, Ethyl 4-phenyl-2-(pyridin-2-yl)thiazole-5-carboxylate]",75,–,"viability at 1 µM [2, 4]: 88%"
"COc1ccc(NC(=O)c2sc(-c3ccccc3)nc2-c2ccccc2)cc1 [Example 8, N-(4-methoxyphenyl)-2,4-diphenylthiazole-5-carboxamide]",73,–,"viability at 0.0008 µM [2, 4]: 67.3%"
"CCOC(=O)c1sc(-c2ccccc2)nc1-c1ccccn1 [Example 9, Ethyl 2-phenyl-4-(pyridin-2-yl)thiazole-5-carboxylate]",–,–,"activity at 10 µM ([1]; 10 uM compound, 1 h pretreatment, 600 μM IBMX, 24 h, read-out: XF FCCP OCR (% Ctrl, concentration)): 71%; viability at 10 µM ([2]; 10 μM compound, 1 μM A23187, 24 h, read-out: MTT Protection (%, concentration)): 98%"
"CCOC(=O)c1sc(-c2ccncc2)nc1-c1ccccc1 [Example 10, Ethyl 4-phenyl-2-(pyridin-4-yl)thiazole-5-carboxylate]",70,–,"viability at 0.5 µM [2, 4]: 88%"
"O=C(O)c1sc(-c2ccccn2)nc1-c1ccccc1 [Example 11, 4-Phenyl-2-(pyridin-2-yl)thiazole-5-carboxylic acid]",76,–,"viability at 0.5 µM [2, 4]: 71.7%"
"O=C(Nc1ccccc1Nc1ccccc1)c1sc(-c2ccccn2)nc1-c1ccccc1 [Example 12, 4-Phenyl-N-(2-(phenylamino)phenyl)-2-(pyridin-2-yl)thiazole-5-carboxamide]",71,–,"viability at 0.0008 µM [2, 4]: 57.2%"
"CNc1ccc2oc(C[C@H]3O[C@@]4(CC[C@H]3C)O[C@H]([C@H](C)C(=O)c3ccc[nH]3)[C@H](C)C[C@H]4C)nc2c1C(=O)O [Example A23187, reference compound]",–,–,"loss in MTT signal ([2]; 1 μM ionophore A23187 alone, at 24 h): about 50%"
"CC(C)Cn1c(=O)n(C)c(=O)c2[nH]cnc21 [IBMX, reference compound]",–,–,"decrease in the uncoupled rate ([1]; IBMX treatment alone (600 μM, 24 h)): ~50%"
